Assay results: patent publication US8232283B2, “Raf inhibitors” (Forma Therapeutics, Inc., priority 2008, dated 2012)
Read-outs that look alike come from different tables or passages of the source.

Columns and labels:
A-431 [B-Raf wildtype] = test: Anti-proliferative activity, SRB assay, 72 hours; type: cell-based; details: Homo sapiens, read-out: CELLULAR IC50 [μM] A-431 [B-Raf wildtype]
Procedure, shortened: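 Cells seeded 24 h before compound, then exposed to a concentration range for 72 h. TCA-fixed, stained with sulforhodamine B, bound dye solubilized in 10 mM Trizma and read at OD520. IC50 from % inhibition of proliferation vs DMSO-treated cells.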

[1] = system: HT-29 [B-Raf V600E mutant]; test: Anti-proliferative activity, SRB assay, 72 hours; type: cell-based; details: Homo sapiens, read-out: CELLULAR IC50 [μM] HT-29 [B-Raf V600E mutant]
Procedure, shortened: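 HT-29 cells, plated 24 h before dosing, exposed to a concentration range of compound for 72 h. Proliferation measured by sulforhodamine B staining after TCA fixation, absorbance at 520 nm; % inhibition versus DMSO-treated cells used to estimate IC50.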

B-Raf = B-Raf (Homo sapiens, UniProt P15056); test: SelectScreen Kinase Profiling Service (Invitrogen), IC50 with or without 5 h preincubation of kinase/test compound; type: biochemical
Protocol: (§1) d) B-Raf/B-Raf (V600E) (SelectScreen™ Assay)
(§2) Selected compound of the present invention were tested in the Select Screen™ Kinase Profiling Service (Invitrogen Corporation, Madison, Wis. 53719, USA) against B-Raf and the B-Raf (V600E) [“V599E” in terminology used by Invitrogen], under conditions of non-disclosure, non-dissemination and non-use.
(§3) In brief, compounds 11 and 39 (see Table 1) were tested at Invitrogen against B-Raf and the B-Raf (V600E), either with or without preincubation of kinase/test compound for 5 hours.

B-Raf (V600E) = B-Raf (V600E) (Homo sapiens, UniProt P15056, V600E); test: as above; type: biochemical
Protocol: as §1, §2, §3

p38 = target: T1, p38 (Homo sapiens, UniProt Q16539); test: Biochemical inhibition, standard selectivity panel (Proteros); design: dose or concentration left out as unconfirmed
T1 construct: purchased Proteros biostructures GmbH (selectivity panel service)
Protocol: (§4) For example, selected compound of the present invention were tested in a standard selectivity panel including c-Raf, p38, and 22 other kinases (Proteros biostructures GmbH, Martinsried/Munich, Germany), under conditions of non-disclosure, non-dissemination and non-use.
(§5) In brief, selected compounds of the present invention were tested […] in triplicates against c-Raf, p38 as well as against Ab1, Akt1, Aur A, c-Kit, c-Raf, Cdk1/CycB, Chk1, FGFR3, Flt3, Fyn, IGF1-R, INSR, Lyn, MAPK-ERK1, PAK-4, PKCalpha, Plk1, Ret, ROCK2, RSK 1, c-Src, TIE2, and VEGF-R2.

C-Raf = target: T2, C-Raf (Homo sapiens, UniProt P04049); test: as above; design: dose or concentration left out as unconfirmed
T2 construct: purchased Proteros biostructures GmbH (selectivity panel service)
Protocol: as §4, §5

[2] = 5 h preincubation of kinase/test compound, read-out: IC50 [nM] B-Raf 5 h preincub.
[3] = without preincubation of kinase/test compound, read-out: IC50 [nM] B-Raf w/o preincub.
[4] = 5 h preincubation of kinase/test compound, read-out: IC50 [nM] B-Raf (V600E) 5 h preincub.
[5] = without preincubation of kinase/test compound, read-out: IC50 [nM] B-Raf (V600E) w/o preincub.

Sequence of B-Raf (V600E) (P15056 whole entry V600E): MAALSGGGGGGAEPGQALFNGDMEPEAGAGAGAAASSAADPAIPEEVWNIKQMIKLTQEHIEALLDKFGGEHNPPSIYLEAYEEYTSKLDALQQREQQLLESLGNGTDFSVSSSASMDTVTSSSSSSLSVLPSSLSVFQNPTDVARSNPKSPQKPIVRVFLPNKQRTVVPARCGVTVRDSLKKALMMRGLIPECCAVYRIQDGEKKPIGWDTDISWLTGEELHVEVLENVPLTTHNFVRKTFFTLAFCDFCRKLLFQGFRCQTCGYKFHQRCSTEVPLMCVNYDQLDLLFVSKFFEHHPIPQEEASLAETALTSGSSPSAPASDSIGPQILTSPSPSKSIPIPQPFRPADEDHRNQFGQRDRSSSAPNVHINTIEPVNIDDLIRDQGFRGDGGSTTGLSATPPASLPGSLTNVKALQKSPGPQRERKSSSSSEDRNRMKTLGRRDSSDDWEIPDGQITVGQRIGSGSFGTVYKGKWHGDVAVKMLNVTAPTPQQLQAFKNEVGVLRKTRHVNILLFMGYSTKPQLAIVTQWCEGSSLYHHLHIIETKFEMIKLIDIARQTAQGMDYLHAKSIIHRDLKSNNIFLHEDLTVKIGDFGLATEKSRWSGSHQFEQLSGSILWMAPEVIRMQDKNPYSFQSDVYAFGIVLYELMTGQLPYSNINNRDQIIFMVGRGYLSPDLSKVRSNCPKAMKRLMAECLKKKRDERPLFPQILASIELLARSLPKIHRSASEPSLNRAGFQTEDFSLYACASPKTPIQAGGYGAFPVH
Sequence of B-Raf (P15056 whole entry): as the sequence (P15056 whole entry V600E) above, with E600V counted along it
T2 sequence (P04049 whole entry): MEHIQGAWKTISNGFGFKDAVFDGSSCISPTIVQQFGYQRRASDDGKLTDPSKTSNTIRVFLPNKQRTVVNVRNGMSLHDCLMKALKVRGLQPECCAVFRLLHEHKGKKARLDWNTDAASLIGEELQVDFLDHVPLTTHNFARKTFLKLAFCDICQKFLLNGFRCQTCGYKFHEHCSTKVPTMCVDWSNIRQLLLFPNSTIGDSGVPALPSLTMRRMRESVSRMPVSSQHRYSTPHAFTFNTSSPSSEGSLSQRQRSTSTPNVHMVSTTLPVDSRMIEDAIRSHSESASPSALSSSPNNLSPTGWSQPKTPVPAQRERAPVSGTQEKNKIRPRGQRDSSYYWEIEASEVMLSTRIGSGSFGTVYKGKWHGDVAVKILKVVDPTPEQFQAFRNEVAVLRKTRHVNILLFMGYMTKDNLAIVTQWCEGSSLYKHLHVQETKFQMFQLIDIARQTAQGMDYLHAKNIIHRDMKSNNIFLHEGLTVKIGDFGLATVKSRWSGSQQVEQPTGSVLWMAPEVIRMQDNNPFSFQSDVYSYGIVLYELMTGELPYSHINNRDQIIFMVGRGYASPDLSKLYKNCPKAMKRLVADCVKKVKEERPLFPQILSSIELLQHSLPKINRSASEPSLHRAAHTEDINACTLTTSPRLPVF
T1 sequence (Q16539 whole entry): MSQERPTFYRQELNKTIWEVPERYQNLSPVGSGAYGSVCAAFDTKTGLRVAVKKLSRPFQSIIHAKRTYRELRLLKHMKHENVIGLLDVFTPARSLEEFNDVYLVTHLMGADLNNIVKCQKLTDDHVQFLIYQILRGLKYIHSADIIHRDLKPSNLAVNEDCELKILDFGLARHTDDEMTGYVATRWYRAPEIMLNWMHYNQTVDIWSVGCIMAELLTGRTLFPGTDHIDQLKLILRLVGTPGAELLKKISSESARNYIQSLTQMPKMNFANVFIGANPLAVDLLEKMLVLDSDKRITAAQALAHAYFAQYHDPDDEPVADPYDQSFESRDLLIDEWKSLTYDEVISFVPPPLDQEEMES

Structure (SMILES): COn1c(=O)c(-c2cc(NC(=O)c3cc(C(C)(C)C)nn3C)ccc2Cl)cc2cnc(NCCN(C)C)nc21 [Compound 11, 5-tert-Butyl-2-methyl-2H-pyrazole-3-carboxylic acid {4-chloro-3-[2-(2-dimethylamino-ethylamino)-8-methoxy-7-oxo-7,8-dihydro-pyrido[2,3-d]pyrimidin-6-yl]-phenyl}-amide]
- IC50 (A-431 [B-Raf wildtype]): > 10 µM
- IC50 [1]: < 10 µM
- IC50 (B-Raf; [2]): < 250 nM
- IC50 (B-Raf; [3]): < 250 nM
- IC50 (B-Raf (V600E); [4]): < 100 nM
- IC50 (B-Raf (V600E); [5]): < 100 nM

Structure (SMILES): COn1c(=O)c(-c2cc(NC(=O)c3cccc(C(F)(F)F)c3F)ccc2Cl)cc2cnc(NCCN(C)C)nc21 [Compound 39, N-{4-Chloro-3-[2-(2-dimethylamino-ethylamino)-8-methoxy-7-oxo-7,8-dihydro-pyrido[2,3-d]pyrimidin-6-yl]-phenyl}-2-fluoro-3-trifluoromethyl-benzamide]
- IC50 (A-431 [B-Raf wildtype]): > 10 µM
- inhibition (p38): > 70%
- inhibition (C-Raf): > 70%
- IC50 [1]: < 5 µM
- IC50 (B-Raf; [2]): < 10 nM
- IC50 (B-Raf; [3]): < 10 nM
- IC50 (B-Raf (V600E); [4]): < 5 nM
- IC50 (B-Raf (V600E); [5]): < 5 nM
